Data taken from paper PMC5530816, “Anticancer metallohelices: nanomolar potency and high selectivity” (Chemical Science, 2015).

Experiments:
Type in all cases: cell-based
[1] = system: methicillin-resistant Staphylococcus aureus, USA300 JE2; test: MIC by broth dilution, MRSA; conditions: 20 h at 37 °C in Müller–Hinton broth
Protocol: (§1) The compounds were screened against cultures of the gram-positive bacterium methicillin-resistant Staphylococcus aureus, USA300 JE2 ([ref. 28 and 29]) (MRSA) and the gram-negative Escherichia coli, TOP10 (E. coli).[30] Kanamycin[30] was used as a positive control.
(§2) MIC values were established using a […] broth dilution method in cation-adjusted Müller–Hinton (MH) broth. 96-well plates (200 μL of 128 μg mL^–1, 64 μM) complex in MH broth, diluted 2^n μg mL^–1, inoculated with each bacterial strain (10^3 cfu mL^–1) were sealed and growth was monitored over 20 h at 37 °C with an iEMS 96-well plate reader (see ESI ^†).

[2] = system: Escherichia coli, TOP10; test: MIC by broth dilution, E. coli; conditions: 20 h at 37 °C in Müller–Hinton broth
Protocol: as §1, §2

[3] = system: MDA-MB-468 (human epithelial breast adenocarcinoma); test: MTT chemosensitivity (IC50), MDA-MB-468 cells; conditions: 96 h exposure, triplicate, mean with standard deviation (esd)
Text: (§3) The activities of the new compounds and cisplatin were investigated in human tumour cell lines: (a) MDA-MB-468 (human epithelial breast adenocarcinoma);[24] (b) HCT116 p53^+/+ and (c) HCT116 p53^–/–.[25] The HCT116 p53^+/+ and HCT116 p53^–/– cancer cells are human colorectal cancer cell lines that are genetically identical (isogenic) except for the presence or absence of functional p53.[25] These were chosen to enable screening of the effects of p53 status as the loss of p53 function is common genetic event in patient tumours and is strongly associated with increased resistance to many conventional chemotherapeutic agents.[25],[26]
(§4) Compounds were added (100 μM to 5 nM in cell medium) for a further 96 h. 3-(4,5-Dimethylthiazol-[…])-2,5-diphenyl tetrazolium bromide solution (0.5 mg mL^–1, 20 μL per well) was added for a final 4 h. Upon completion all solutions were aspirated, dimethyl sulfoxide (150 μl) was added and absorbance (540 nm) was recorded with a Thermo Scientific Multiskan EX microplate photometer. […]
(§5) 0 ×10 3 c el l s / wel l and i nc u bat ed f or24 hat 37 ° C i n an at mos p h er e of5% C O2, p r i ort o d r u gexp os u r e. […]
(§6) C ell med ia (20 0 μ l) was ad d ed to the referenc e c ells and d iffering c onc entrations of d ru g s olu tion (20 0 μ l) were ad d ed to the remaining wells . […]

[4] = system: HCT116 p53^+/+ (human colon carcinoma, wild type p53); test: MTT chemosensitivity (IC50), HCT116 p53+/+ cells; conditions: 96 h exposure, triplicate, mean with standard deviation (esd)
Text: as §3, §4, §5, §6

[5] = system: HCT116 p53^–/– (human colon carcinoma, p53-null); test: MTT chemosensitivity (IC50), HCT116 p53-/- cells; conditions: 96 h exposure, triplicate, mean with standard deviation (esd)
Text: as §3, §4, §5, §6

[6] = approximate concentration in μM

Row | Structure (SMILES) | MRSA MIC [1] [μg ml^–1] | MRSA MIC [1, 6] [µM] | E. coli MIC [2] [μg ml^–1] | E. coli MIC [2, 6] [µM] | IC50 [3] [µM] | IC50 [4] [µM] | IC50 [5] [µM]
1 | NC[C@H]1O[C@H](O[C@H]2[C@H](O)[C@@H](O[C@H]3O[C@H](CO)[C@@H](O)[C@H](N)[C@H]3O)[C@H](N)C[C@@H]2N)[C@H](O)[C@@H](O)[C@@H]1O [Kanamycin] | 1 | 2 | 2 | 4 | – | – | –
2 | N.N.[Cl][Pt][Cl] [cisplatin] | – | – | – | – | 2.5 ± 0.5 | 3.5 ± 1.5 | 8.1 ± 1.8
